In patent publication US20170001990A1 (Genentech, Inc., priority 2014, published 2017):
Several values for one entry are separate records, joined by “and”; a condition that tells them apart may be missing. Equal values may be shown once.

Each compound was assayed against Human recombinant carboxy-terminal his-tagged LDHA (amino acids 2-332) (Homo sapiens, UniProt P00338) (assay: LDHA enzyme inhibition assay (NADH fluorescence)). Details: LDHA IC50 (μM), 1 nM LDHA, NADH and pyruvate, stereochemistry of tested sample given.
Description: Test compounds were diluted in 100% DMSO with 1:3 serial dilutions. […] For the enzyme reaction, serially diluted compounds were added to a mixture of enzyme and NADH. […] Following the baseline read, pyruvate was added to the assay plates and the plates were read with excitation 340 nm and emission 480 nm for 10 minutes every 2.5 seconds. A suitable linear timeframe was selected (150-400 s) to calculate the slope of each concentration tested. The raw data were fitted to 4-parameter dose-response curves using the following equation:
fit=(A+((B−A)/(1+((C/x)̂D))))
inv=(C/((((B−A)/(y−A))−)̂(1/D)))
res=(y−fit) • where A=minimum y, B=maximum y, C=50% y max, and D=slope factor.
The curve bottom was set to the background rate (initial 5 second recording prior to addition of pyruvate) and curve top was set to no inhibitor (DMSO only) control wells rate.
The compounds of the present invention were tested for their capacity to inhibit LDHA activity and activation as described in the enzyme inhibition assay described above.
`O=C1CC(c2ccsc2)(c2cccc(Oc3cccc(C(F)(F)F)c3)n2)NC(=O)C1Sc1ccccc1Cl` (stereo not drawn) [Example 153, 3-(2-chlorophenyl)sulfanyl-6-(3-thienyl)-6-[6-[3-(trifluoromethyl)phenoxy]-2-pyridyl]piperidine-2,4-dione] showed an IC50 of 0.012 µM. `O=C1CC(c2ccc(N3CCC(F)(F)CC3)cc2)(c2ccsc2)NC(=O)C1Sc1ccccc1Cl` (stereo not drawn) [Example 72, 3-(2-chlorophenyl)sulfanyl-6-[4-(4,4-difluoro-1-piperidyl)phenyl]-6-(3-thienyl)piperidine-2,4-dione] gave an IC50 of 0.025 µM. `O=C1CC(c2ccsc2)(c2cccc(NCCC3CCCCC3)n2)NC(=O)C1Sc1ccccc1Cl` (stereo not drawn) [Example 220, 3-(2-chlorophenyl)sulfanyl-6-[6-(2-cyclohexyl-ethylamino)-2-pyridyl]-6-(3-thienyl)piperidine-2,4-dione] was tested, and the IC50 was 0.162 µM. Work on `O=C1CC(c2ccsc2)(c2cccc(OCC3CC3)n2)NC(=O)C1Sc1ccccc1Cl` (single isomer, unassigned) [Example 97, 3-(2-chlorophenyl)sulfanyl-6-[6-(cyclopropyl-methoxy)-2-pyridyl]-6-(3-thienyl)piperidine-2,4-dione] yielded an IC50 of 0.03 µM. Work on `CC(C)COc1cccc(C2(c3ccsc3)CC(=O)C(Sc3ccccc3Cl)C(=O)N2)n1` (stereo not drawn) [Example 75, 3-(2-chlorophenyl)sulfanyl-6-(6-isobutoxy-2-pyridyl)-6-(3-thienyl)piperidine-2,4-dione] yielded an IC50 of 0.07 µM. For `COCc1ccccc1Oc1cccc(C2(c3ccsc3)CC(=O)C(Sc3ccccc3Cl)C(=O)N2)n1` (stereo not drawn) [Example 94], the IC50 was 0.023 µM. `O=C1CC(c2ccsc2)(c2cccc(Cc3cccc(F)c3)n2)NC(=O)C1Sc1ccccc1Cl` (stereo not drawn) [Example 5, 3-(2-chlorophenyl)sulfanyl-6-[6-[(3-fluorophenyl)methyl]-2-pyridyl]-6-(3-thienyl)piperidine-2,4-dione] was tested, and the IC50 was 0.028 µM and 0.009 µM and 0.066 µM. For `O=C1CC(c2ccsc2)(c2cccc(Oc3ccccc3Br)n2)NC(=O)C1Sc1ccccc1Cl` (single isomer, unassigned) [Example 172, 6-[6-(2-bromophenoxy)-2-pyridyl]-3-(2-chloro-phenyl)sulfanyl-6-(3-thienyl)piperidine-2,4-dione], the IC50 was 0.056 µM. With `C[C@@H](Nc1cccc(C2(c3ccsc3)CC(=O)C(Sc3ccccc3Cl)C(=O)N2)n1)c1ccc(F)cc1` (mixture of isomers) [Example 302, 3-((2-chlorophenyl)thio)-6-(6-((1-(4-fluorophenyl)ethyl)amino)pyridin-2-yl)-6-(thiophen-3-yl) piperidine-2,4-dione] the IC50 was 0.03 µM. `Cn1cnc(Nc2cccc(C3(c4ccsc4)CC(=O)C(Sc4ccccc4Cl)C(=O)N3)n2)n1` (stereo not drawn) [Example 271, 3-((2-chlorophenyl)thio)-6-(6-((1-methyl-1H-1,2,4-triazol-3-yl)amino)pyridin-2-yl)-6-(thiophen-3-yl) piperidine-2,4-dione] gave an IC50 of 0.355 µM. For `O=C1CC(c2ccsc2)(c2cccc(Oc3ccc(C(F)(F)F)cc3)n2)NC(=O)C1Sc1ccccc1Cl` (stereo not drawn) [Example 315, 3-(2-chlorophenyl)sulfanyl-6-(3-thienyl)-6-[6-[4-(trifluoromethyl)phenoxy]-2-pyridyl]piperidine-2,4-dione], the IC50 was 0.014 µM. For `CC1CC1COc1cccc(C2(c3ccsc3)CC(=O)C(Sc3ccccc3Cl)C(=O)N2)n1` (stereo not drawn) [Example 183, 3-(2-chlorophenyl)sulfanyl-6-[6-[(2-methylcyclo-propyl)methoxy]-2-pyridyl]-6-(3-thienyl)piperidine-2,4-dione], the IC50 was 0.005 µM. `O=C1CC(c2ccsc2)(c2cccc(Oc3ccccc3)n2)NC(=O)C1Sc1ccccc1Cl` [Example 336, (6R)-3-(2-chlorophenyl) sulfanyl-6-(6-phenoxy-2-pyridyl)-6-(3-thienyl) piperidine-2,4-dione] was tested, and the IC50 was 0.368 µM. `O=C1CC(c2ccsc2)(c2cccc(Oc3cncc(F)c3)n2)NC(=O)C1Sc1ccccc1Cl` (single isomer, unassigned) [Example 65, 3-(2-chlorophenyl)sulfanyl-6-[6-[(5-fluoro-3-pyridyl)oxy]-2-pyridyl]-6-(3-thienyl)piperidine-2,4-dione] gave an IC50 of 0.056 µM. `O=C1CC(c2ccsc2)(c2cccc(Oc3cccnc3)n2)NC(=O)C1Sc1ccccc1Cl` (stereo not drawn) [Example 71, 3-((2-chlorophenyl)thio)-6-(6-(pyridin-3-yloxy)pyridin-2-yl)-6-(thiophen-3-yl)piperidine-2,4-dione] showed an IC50 of 0.056 µM. For `O=C1CC(c2ccsc2)(c2cccc(OCCC3CCCC3)n2)NC(=O)C1Sc1ccccc1Cl` (single isomer, unassigned) [Example 125, 3-((2-chlorophenyl)thio)-6-(6-(2-cyclopentyl-ethoxy)pyridin-2-yl)-6-(thiophen-3-yl) piperidine-2,4-dione], the IC50 was 0.003 µM. With `O=C1CC(c2ccsc2)(c2cccc(OCC3CCCO3)n2)NC(=O)C1Sc1ccccc1Cl` (single isomer, unassigned) [Example 239, 3-(2-chlorophenyl)sulfanyl-6-[6-(tetrahydrofuran-2-ylmethoxy)-2-pyridyl]-6-(3-thienyl)piperidine-2,4-dione] the IC50 was 0.015 µM. For `O=C1CC(c2ccsc2)(c2cccc(Oc3cccc4ncccc34)n2)NC(=O)C1Sc1ccccc1Cl` (single isomer, unassigned) [Example 137, 3-(2-chlorophenyl)sulfanyl-6-[6-(5-quinolyloxy)-2-pyridyl]-6-(3-thienyl) piperidine-2,4-dione], the IC50 was 0.073 µM. `O=C1CC(c2ccsc2)(c2cccc(Oc3ccc(F)c(Br)c3)n2)NC(=O)C1Sc1ccccc1Cl` (single isomer, unassigned) [Example 149, 6-[6-(3-bromo-4-fluoro-phenoxy)-2-pyridyl]-3-(2-chlorophenyl)sulfanyl-6-(3-thienyl)piperidine-2,4-dione] was tested, and the IC50 was 0.069 µM. Work on `O=C1CC(c2ccsc2)(c2cccc(OCC3CCOCC3)n2)NC(=O)C1Sc1ccccc1Cl` (single isomer, unassigned) [Example 163, 3-((2-chlorophenyl)thio)-6-(6-((tetrahydro-2H-pyran-4-yl)methoxy)pyridin-2-yl)-6-(thiophen-3-yl)piperidine-2,4-dione] yielded an IC50 of 0.194 µM. Work on `CC(C)Oc1cccc(C2(c3ccsc3)CC(=O)C(Sc3ccccc3Cl)C(=O)N2)n1` (stereo not drawn) [Example 2, 3-(2-chlorophenyl)sulfanyl-6-(6-isopropoxy-2-pyridyl)-6-(3-thienyl)piperidine-2,4-dione] yielded an IC50 of 0.082 µM. In the case of `COc1ccc(N(C)c2cccc(C3(c4ccsc4)CC(=O)C(Sc4ccccc4Cl)C(=O)N3)n2)cc1` (stereo not drawn) [Example 273, 3-((2-chlorophenyl)thio)-6-(6-((4-methoxyphenyl) (methyl)amino)pyridin-2-yl)-6-(thiophen-3-yl) piperidine-2,4-dione], the IC50 is reported as 0.072 µM. `O=C1CC(c2ccsc2)(c2cccc(Oc3cc(F)cc(F)c3)n2)NC(=O)C1Sc1ccccc1Cl` (stereo not drawn) [Example 62, 3-(2-chlorophenyl)sulfanyl-6-[6-(3,5-difluoro-phenoxy)-2-pyridyl]-6-(3-thienyl)piperidine-2,4-dione] showed an IC50 of 0.036 µM. Work on `CC(Oc1cccc(C2(c3ccsc3)CC(=O)C(Sc3ccccc3Cl)C(=O)N2)n1)c1ccc(F)c(F)c1` (stereo not drawn) [Example 313, 3-((2-chlorophenyl)thio)-6-(6-(1-(3,4-difluoro-phenyl)ethoxy)pyridin-2-yl)-6-(thiophen-3-yl) piperidine-2,4-dione] yielded an IC50 of 0.105 µM.
